± gives the expanded uncertainty stated by the source.

The conditions of data set [1]: 101.33 kPa, Liquid, Vibrating tube method.
Data set [2] in a line: refractive index (Na D-line) (dimensionless). To be noted: 101.33 kPa, Liquid, Standard Abbe refractometry.
Data set [3] in a line: relative permittivity at zero frequency (dimensionless). To be noted: 101.33 kPa, Liquid, Parallel plate capacitor.

Broadly, the mass density is mass per unit of volume. The refractive index is a measure of how strongly the sample bends light. As to `CCCCCCCC` [octane], the mass density in data set [1] (288.15 K) stood at 706.81 ± 0.32 kg/m3; in data set [1] (293.15 K) it was 702.77 ± 0.32 kg/m3; in data set [1] (298.15 K), 698.73 ± 0.32 kg/m3; in data set [1] (303.15 K), 694.7 ± 0.32 kg/m3; in data set [1] (308.15 K), 690.67 ± 0.32 kg/m3. Also, the refractive index is reported as 1.3991 ± 0.0005 in data set [2] (293.15 K), 1.3967 ± 0.0005 in data set [2] (298.15 K) and 1.3945 ± 0.0005 in data set [2] (303.15 K). For the same compound, the “relative permittivity at zero frequency” value in data set [3] (288.15 K) is on record as 1.975 ± 0.12; in data set [3] (293.15 K), 1.968 ± 0.12; in data set [3] (298.15 K), 1.961 ± 0.12; in data set [3] (303.15 K), 1.954 ± 0.12; in data set [3] (308.15 K), 1.947 ± 0.12.
For the compound `CCCCCO` [pentan-1-ol], the mass density in data set [1] (288.15 K) stood at 818.49 ± 0.31 kg/m3; in data set [1] (293.15 K), 814.82 ± 0.31 kg/m3; in data set [1] (298.15 K), 811.19 ± 0.31 kg/m3; in data set [1] (303.15 K) it was 807.5 ± 0.31 kg/m3; in data set [1] (308.15 K), 803.86 ± 0.31 kg/m3. Further, the refractive index in data set [2] (293.15 K) was 1.41001 ± 0.00053; in data set [2] (298.15 K), 1.4084 ± 0.0005; in data set [2] (303.15 K) it was 1.4065 ± 0.0005. The “relative permittivity at zero frequency” value is on record as 16.334 ± 0.98 in data set [3] (288.15 K); 15.736 ± 0.94 in data set [3] (293.15 K); 15.144 ± 0.91 in data set [3] (298.15 K); 14.565 ± 0.87 in data set [3] (303.15 K); 13.998 ± 0.84 in data set [3] (308.15 K).

These data come from the NIST ThermoML archive (doi:10.1016/j.tca.2012.05.036).
